Assay: xn = mol fraction of the nth substance listed
Conditions: Liquid, Bellows volumetry

C=CC [propene] + Cc1ccccc1
Conditions | mass density [kg/m3]
422.8 K, 6300 kPa, x1 = 0.7612 | 383
422.8 K, 6800 kPa, x1 = 0.7612 | 392.4
422.8 K, 7500 kPa, x1 = 0.7612 | 405.5
422.8 K, 8900 kPa, x1 = 0.7612 | 424.5
422.8 K, 10600 kPa, x1 = 0.7612 | 441.8
422.8 K, 15400 kPa, x1 = 0.7612 | 476.7
422.8 K, 17400 kPa, x1 = 0.7612 | 484.1
422.8 K, 24400 kPa, x1 = 0.7612 | 508.8
422.8 K, 31000 kPa, x1 = 0.7612 | 527.4
422.8 K, 37800 kPa, x1 = 0.7612 | 543.1
422.8 K, 44900 kPa, x1 = 0.7612 | 556.7
422.8 K, 51600 kPa, x1 = 0.7612 | 566.8
422.8 K, 58200 kPa, x1 = 0.7612 | 576.2
422.8 K, 63200 kPa, x1 = 0.7612 | 583.4
422.8 K, 67200 kPa, x1 = 0.7612 | 588.5
424 K, 4500 kPa, x1 = 0.53 | 514
424 K, 4800 kPa, x1 = 0.53 | 516.1
424 K, 5300 kPa, x1 = 0.53 | 519
424 K, 5900 kPa, x1 = 0.53 | 522.7
424 K, 7100 kPa, x1 = 0.53 | 529
424 K, 8700 kPa, x1 = 0.53 | 535.9
424 K, 10400 kPa, x1 = 0.53 | 543
424 K, 17000 kPa, x1 = 0.53 | 563.7
424 K, 24000 kPa, x1 = 0.53 | 581.4
424 K, 30500 kPa, x1 = 0.53 | 594.5
425.2 K, 1300 kPa, x1 = 0.1159 | 668.8
425.2 K, 1600 kPa, x1 = 0.1159 | 669.7
425.2 K, 2200 kPa, x1 = 0.1159 | 671
425.2 K, 3200 kPa, x1 = 0.1159 | 673.2
425.2 K, 5400 kPa, x1 = 0.1159 | 678.2
425.2 K, 7000 kPa, x1 = 0.1159 | 681.3
425.2 K, 10300 kPa, x1 = 0.1159 | 688.2
425.2 K, 17100 kPa, x1 = 0.1159 | 700.5
425.2 K, 24000 kPa, x1 = 0.1159 | 712.3
425.2 K, 30700 kPa, x1 = 0.1159 | 721.9
425.2 K, 37600 kPa, x1 = 0.1159 | 730.7
425.2 K, 44700 kPa, x1 = 0.1159 | 738.6
425.2 K, 51400 kPa, x1 = 0.1159 | 745.7
425.2 K, 58400 kPa, x1 = 0.1159 | 752.3
425.2 K, 63100 kPa, x1 = 0.1159 | 756.7
425.2 K, 67000 kPa, x1 = 0.1159 | 760.1
474.3 K, 2200 kPa, x1 = 0.1159 | 604.5
474.3 K, 2900 kPa, x1 = 0.1159 | 607.4
474.3 K, 3700 kPa, x1 = 0.1159 | 610.3
474.3 K, 5300 kPa, x1 = 0.1159 | 616.2
474.3 K, 7200 kPa, x1 = 0.1159 | 622.2
474.3 K, 10500 kPa, x1 = 0.1159 | 632.3
474.3 K, 13900 kPa, x1 = 0.1159 | 641.4
474.3 K, 17400 kPa, x1 = 0.1159 | 650.5
474.3 K, 20400 kPa, x1 = 0.1159 | 657.2
474.3 K, 23700 kPa, x1 = 0.1159 | 664.4
474.3 K, 31100 kPa, x1 = 0.1159 | 678.2
474.3 K, 37400 kPa, x1 = 0.1159 | 688.7
474.3 K, 38000 kPa, x1 = 0.1159 | 689.6
474.3 K, 44800 kPa, x1 = 0.1159 | 700.1
474.3 K, 51300 kPa, x1 = 0.1159 | 708.8
474.4 K, 6700 kPa, x1 = 0.53 | 412.3
474.4 K, 7200 kPa, x1 = 0.53 | 423.9
474.4 K, 8100 kPa, x1 = 0.53 | 437.9
474.4 K, 9200 kPa, x1 = 0.53 | 450.2
474.4 K, 10700 kPa, x1 = 0.53 | 464.3
474.4 K, 13800 kPa, x1 = 0.53 | 487.2
474.4 K, 18000 kPa, x1 = 0.53 | 509
474.4 K, 23800 kPa, x1 = 0.53 | 531.7
474.4 K, 31300 kPa, x1 = 0.53 | 551.8
474.4 K, 37900 kPa, x1 = 0.53 | 566.1
474.4 K, 44400 kPa, x1 = 0.53 | 579
474.4 K, 51500 kPa, x1 = 0.53 | 591.3
474.4 K, 58400 kPa, x1 = 0.53 | 602.1
474.4 K, 63100 kPa, x1 = 0.53 | 608.9
474.4 K, 67200 kPa, x1 = 0.53 | 614.2
474.8 K, 7900 kPa, x1 = 0.7612 | 213.2
474.8 K, 8500 kPa, x1 = 0.7612 | 232.7
474.8 K, 9100 kPa, x1 = 0.7612 | 257.3
474.8 K, 9800 kPa, x1 = 0.7612 | 279.8
474.8 K, 10600 kPa, x1 = 0.7612 | 304.4
474.8 K, 11700 kPa, x1 = 0.7612 | 333.8
474.8 K, 12100 kPa, x1 = 0.7612 | 337.7
474.8 K, 14600 kPa, x1 = 0.7612 | 374.6
474.8 K, 17400 kPa, x1 = 0.7612 | 402.7
474.8 K, 24200 kPa, x1 = 0.7612 | 442.3
474.8 K, 31800 kPa, x1 = 0.7612 | 475
474.8 K, 37900 kPa, x1 = 0.7612 | 493.8
474.8 K, 44600 kPa, x1 = 0.7612 | 511.3
474.8 K, 51500 kPa, x1 = 0.7612 | 527.1
474.8 K, 58300 kPa, x1 = 0.7612 | 540
474.8 K, 63100 kPa, x1 = 0.7612 | 547.8
474.8 K, 67300 kPa, x1 = 0.7612 | 553.9
505.4 K, 7200 kPa, x1 = 0.53 | 291.1
505.4 K, 7700 kPa, x1 = 0.53 | 316.5
505.4 K, 8000 kPa, x1 = 0.53 | 328
505.4 K, 8700 kPa, x1 = 0.53 | 355.4
505.4 K, 9500 kPa, x1 = 0.53 | 376.8
505.4 K, 10600 kPa, x1 = 0.53 | 396.8
505.4 K, 13800 kPa, x1 = 0.53 | 435.7
505.4 K, 17400 kPa, x1 = 0.53 | 462.3
505.4 K, 24200 kPa, x1 = 0.53 | 495.4
505.4 K, 31500 kPa, x1 = 0.53 | 523.8
505.4 K, 37900 kPa, x1 = 0.53 | 540.2
505.4 K, 44600 kPa, x1 = 0.53 | 554.8
505.4 K, 51400 kPa, x1 = 0.53 | 568
505.4 K, 58400 kPa, x1 = 0.53 | 579.6
505.4 K, 62900 kPa, x1 = 0.53 | 587.4
505.4 K, 66800 kPa, x1 = 0.53 | 592.6
554.4 K, 4700 kPa, x1 = 0.1159 | 442.2
554.4 K, 5300 kPa, x1 = 0.1159 | 460
554.4 K, 6000 kPa, x1 = 0.1159 | 475.7
554.4 K, 6600 kPa, x1 = 0.1159 | 486
554.4 K, 7200 kPa, x1 = 0.1159 | 493.7
554.4 K, 9400 kPa, x1 = 0.1159 | 515.7
554.4 K, 10800 kPa, x1 = 0.1159 | 526.4
554.4 K, 17800 kPa, x1 = 0.1159 | 567.8
554.4 K, 24100 kPa, x1 = 0.1159 | 591.2
554.4 K, 30900 kPa, x1 = 0.1159 | 610.7
554.4 K, 37900 kPa, x1 = 0.1159 | 626.5
554.4 K, 44500 kPa, x1 = 0.1159 | 640.2
554.4 K, 51800 kPa, x1 = 0.1159 | 653
554.4 K, 58200 kPa, x1 = 0.1159 | 663.6
554.4 K, 63300 kPa, x1 = 0.1159 | 671.5
554.4 K, 67100 kPa, x1 = 0.1159 | 676.8
